In patent US10400008B2, “Modulators of the SRC-kinase activity for preventing or treating metastatic cancer” (Cancer Research Technology Limited, priority 2013, dated 2019):
Blank lines part the entries; values can stand above or below the molecule they belong to.

Key:
[1] = system: non-small cell lung tumor line xenografts; conditions: mice, reference 20; cited from earlier work
HT1080 cell xenografts = assay: HT1080 xenografts in nude male mice, tumor mass; type: in vivo; conditions: 200 μl of 1 μM Casodex i.p. at alternate days, 4 weeks, vs vehicle
Method: FIG. 1: Casodex reduces the growth of human fibrosarcoma HT1080 xenografts. HT1080 xenografts were established in nude male mice as described in Methods. Tumors were treated with vehicle alone (ethanol), or the pure androgen antagonist, Casodex (Cx; at 1 μM; Sigma-Aldrich). Tumor mass was measured at the indicated times. Mean and SEM are shown. n represents the number of experiments.
(§1) HT1080 cells in 50% (v/v) Matrigel solution in phosphate-buffered saline (PBS; pH 7.4) were subcutaneously injected in the dorsal posterior region at 2.5×10^6 cells/male athymic mice (CD mice, Charles-River Italia) without hormone priming. Animals were randomly selected for the treatment with Casodex dissolved in 0.1% ethanol or vehicle alone for additional 4 weeks. Tumour volumes of HT1080 cell xeno-grafts were measured by a calliper and expressed as tumour mass (mm^3). For the treatment of each animal, 200 μl of 1 μM Casodex in 0.1% ethanol or the same amount of vehicle alone were intra-peritoneally administered at alternate days to the mice. No difference in body weight was detected between control mice or Casodex-treated mice.

[2] = Body weight of HT1080 xenograft mice; type: in vivo; conditions: Casodex-treated vs control mice
Method: as §1

Src = molecular target: T1, Src (Homo sapiens, UniProt P12931); assay: Src kinase assay in immune-complexes with enolase as substrate, EGF-stimulated HT1080 cells; type: cell-based; conditions: EGF 100 ng/ml, 10 μM Casodex, compared with 1 nM S1 peptide
T1 construct: lysates were immune-precipitated with the anti-Src MAb and Src activity in immune-complexes was assayed using enolase as a substrate; endogenous in cells; host or cells: HT1080 human fibrosarcoma cells
Method: FIG. 3: Inhibition by S1 peptide of AR/Src complex, Src activation and DNA synthesis triggered by EGF in HT1080 cells. Quiescent HT1080 cells were used. The cells were left un-stimulated or stimulated for 10 min with EGF (at 100 ng/ml; Roche) in the absence or presence of S1 or Ss peptide (both at 1 nM). Casodex (at 10 μM) was used for comparison with the S1 peptide. The same concentrations of peptides and Casodex were used throughout the experiments. Upper section in A, the Western blot of HT1080 cell lysates with anti-EGFR antibody is shown. […] Lower section in A, lysates were immune-precipitated with anti EGFR Ab and proteins in immune-complexes were detected using antibodies against the indicated proteins. In B, lysates were immune-precipitated with the anti-Src MAb and Src activity in immune-complexes was assayed using enolase as a substrate. In C, cells on coverslips were left untreated or treated for 18 h with the indicated compounds. After in vivo pulse with BrdU (100 μM; Sigma), BrdU incorporation was analyzed by IF and expressed as % of total nuclei. Mean and SEM are shown. n represents the number of experiments.
Src tyrosine kinase was immune-precipitated, detected and assayed using enolase as a substrate (15). Src, EGF-R and tubulin were detected from cell lysates using appropriate antibodies (7). AR was immune-precipitated and detected as reported (3). […]

HT1080 cells [3] = assay: BrdU incorporation (DNA synthesis) in HT1080 cells; type: cell-based, human; conditions: EGF, Casodex 10 μM
Method: Androgen challenging of these cells neither induces AR nuclear translocation, nor enhances DNA synthesis while robustly increases cell motility. In A, quiescent HT1080 cells were transfected with 3416 or 3424 ARE-luc constructs with or without hAR expressing plasmid. Details of these procedures have been described in Methods. Cells were left un-stimulated or stimulated for 18 h with 10 nM R1881. The luciferase activity was assayed, normalized using beta-gal as an internal control, and expressed as fold induction. Means and SEM are shown; n represents the number of experiments. […] In B, quiescent HT1080 cells on coverslips were left untreated or treated for 60 min with 10 nM R1881. Cells were analysed by IF for AR (left images) or Hoechst (right images). Images are representative of three independent experiments. […] In C, BrdU incorporation in cells on coverslips was analysed and expressed as in FIG. 2. In D, the number of migrated cells was evaluated and expressed as relative increase. […]
FIG. 3: Inhibition by S1 peptide of AR/Src complex, Src activation and DNA synthesis triggered by EGF in HT1080 cells. […] Lower section in A, lysates were immune-precipitated with anti EGFR Ab and proteins in immune-complexes were detected using antibodies against the indicated proteins. […] After in vivo pulse with BrdU (100 μM; Sigma), BrdU incorporation was analyzed by IF and expressed as % of total nuclei. […]

MMP-9 = MMP-9 release from HT1080 cells (fluorescent AK411 kit); type: cell-based, human; conditions: 6 h, Casodex 10 μM
Method: (§2) FIG. 4: The S1 peptide inhibits EGF-stimulated migration and MMP-9 secretion in HT1080 cells. Quiescent HT1080 cells were used. In A, cells were left untreated or treated for 6 h with the indicated compounds. MMP-9 release was assayed as described in Methods. In B, cells were allowed to migrate for 6 h in Trans-well filters in the absence or presence of the indicated compounds. Migrated cells were stained and counted as reported in Methods. In A and B, data were expressed as relative increase. Mean and SEM is shown. n represents the number of experiments. In C, cells were wounded and then left unstimulated or stimulated for 6 h with the indicated compounds. Contrast-phase images are representative of 3 different experiments, each performed in duplicate.
(§3) BrdU incorporation, migration and wound healing analysis were done as described (3, 11). MMP-9 activity was assayed (12, 13), using the fluorescent AK411 kit (BIOMOL Res. Lab.).

HT1080 cells [4] = assay: Migration in Trans-well filters and wound healing of HT1080 cells; type: cell-based, human; conditions: 6 h, Casodex 10 μM
Method: as §2, §3

EGF receptor (EGFR) = molecular target: T2, EGF receptor (EGFR) (human, UniProt P00533 25-1210); assay: immune-precipitation with anti-EGFR antibody from EGF-stimulated HT1080 lysates, immunoblot
T2 construct: Endogenous protein of HT1080 cells
Method: Quiescent HT1080 cells were used. […] The same concentrations of peptides and Casodex were used throughout the experiments. […] In C, cells on coverslips were left untreated or treated for 18 h with the indicated compounds. After in vivo pulse with BrdU (100 μM; Sigma), BrdU incorporation was analyzed by IF and expressed as % of total nuclei. Mean and SEM are shown. n represents the number of experiments.
The ECL system (GE Healthcare) was used to reveal immune-reactive proteins.

T1 sequence (P12931 whole entry): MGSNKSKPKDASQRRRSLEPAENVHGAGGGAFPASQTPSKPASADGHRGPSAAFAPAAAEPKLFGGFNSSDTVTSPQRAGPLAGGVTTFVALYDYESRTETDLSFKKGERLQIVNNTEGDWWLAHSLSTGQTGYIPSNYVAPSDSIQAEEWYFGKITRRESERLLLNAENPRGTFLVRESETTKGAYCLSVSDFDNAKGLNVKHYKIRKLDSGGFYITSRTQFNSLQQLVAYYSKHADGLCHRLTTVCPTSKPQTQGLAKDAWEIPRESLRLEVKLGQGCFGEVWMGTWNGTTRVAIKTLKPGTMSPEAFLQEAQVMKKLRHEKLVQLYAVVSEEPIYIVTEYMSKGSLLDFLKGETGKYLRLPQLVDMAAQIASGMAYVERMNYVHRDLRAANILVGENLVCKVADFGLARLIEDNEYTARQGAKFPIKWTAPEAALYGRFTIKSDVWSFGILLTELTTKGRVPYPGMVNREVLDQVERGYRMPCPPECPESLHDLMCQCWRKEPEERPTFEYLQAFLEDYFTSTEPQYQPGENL

Molecule: C[C@]12CC[C@@H]3c4ccc(O)cc4C[C@@H](CCCCCCCCC[S+]([O-])CCCC(F)(F)C(F)(F)F)[C@H]3[C@@H]1CC[C@@H]2O (some centres unmarked) [ICI 182,780]
estrogen-stimulated growth of non-small cell lung tumor line xenografts [1]: blocks

EGF stimulation of Src activity (Src): comparable
Molecule: CC(O)(CS(=O)(=O)c1ccc(F)cc1)C(=O)Nc1ccc(C#N)c(C(F)(F)F)c1 (centres unmarked) [Casodex, reference compound]
growth (tumor mass) of HT1080 xenografts (HT1080 cell xenografts): reduced
body weight [2]: No difference
EGF mitogenic effect (DNA synthesis) (HT1080 cells [3]): abolishes
EGF-stimulated MMP-9 secretion (MMP-9): inhibits
EGF-increased motility (HT1080 cells [4]): inhibited at a similar extent

binding result (EGF receptor (EGFR)): binds
B1: androgen receptor (AR) (receptor, human, UniProt P10275 1-920, looked up)
chain: MEVQLGLGRVYPRPPSKTYRGAFQNLFQSVREVIQNPGPRHPEAASAAPPGASLLLLQQQQQQQQQQQQQQQQQQQQQQQETSPRQQQQQQGEDGSPQAHRRGPTGYLVLDEEQQPSQPQSALECHPERGCVPEPGAAVAASKGLPQQLPAPPDEDDSAAPSTLSLLGPTFPGLSSCSADLKDILSEASTMQLLQQQQQEAVSEGSSSGRAREASGAPTSSKDNYLGGTSTISDNAKELCKAVSVSMGLGVEALEHLSPGEQLRGDCMYAPLLGVPPAVRPTPCAPLAECKGSLLDDSAGKSTEDTAEYSPFKGGYTKGLEGESLGCSGSAAAGSSGTLELPSTLSLYKSGALDEAAAYQSRDYYNFPLALAGPPPPPPPPHPHARIKLENPLDYGSAWAAAAAQCRYGDLASLHGAGAAGPGSGSPSAAASSSWHTLFTAEEGQLYGPCGGGGGGGGGGGGGGGGGGGGGGGEAGAVAPYGYTRPPQGLAGQESDFTAPDVWYPGGMVSRVPYPSPTCVKSEMGPWMDSYSGPYGDMRLETARDHVLPIDYYFPPQKTCLICGDEASGCHYGALTCGSCKVFFKRAAEGKQKYLCASRNDCTIDKFRRKNCPSCRLRKCYEAGMTLGARKLKKLGNLKLQEEGEASSTTSPTEETTQKLTVSHIEGYECQPIFLNVLEAIEPGVVCAGHDNNQPDSFAALLSSLNELGERQLVHVVKWAKALPGFRNLHVDDQMAVIQYSWMGLMVFAMGWRSFTNVNSRMLYFAPDLVFNEYRMHKSRMYSQCVRMRHLSQEFGWLQITPQEFLCMKALLLFSIIPVDGLKNQKFFDELRMNYIKELDRIIACKRKNPTSCSRRFYQLTKLLDSVQPIARELHQFTFDLLIKSHMVSVDFPEMMAEIISVQVPKILSGKVKPIYFHTQ
notes: Endogenous protein of HT1080 cells (co-immunoprecipitation from lysates)
